In US9181234B2, “Antibacterial compounds” (priority 2010, dated 2015):
In brackets after ≈: the same amount, converted by molar mass.

How the values were obtained:
[1] = physchem; details: for solubility at 24 h: kinetic from dmso stock
Method: Turbimetric Assay: Determination of Solubility
The solubility of the compounds was measured using a turbidimetric method. A series of doubling dilutions of compounds were prepared in neat dimethyl sulfoxide (DMSO). 5 μl samples were diluted twenty-fold into 95 μl volumes of 100 mM citrate buffer (pH 4), phosphate buffered saline (PBS, pH 7.4) or carbonate-bicarbonate buffer (pH 9) in microtitre assay plates and allowed to reach equilibrium at room temperature for 24 hours. The absorbance within each well of the plate was read spectrophotometrically at a wavelength of 620 nm. A precipitate forms when the maximum aqueous solubility level is reached. The value quoted is the highest concentration where the compound was in solution i.e. where no measurable precipitate was present. […] ND=not determined

[2] = tested on: Staphylococcus aureus (Isolate ID ATCC 29213); assay: Antibacterial activity, MIC, S. aureus; format: cell-based; details: Staphylococcus aureus, ATCC29213, Gram positive strain; broth microdilution or agar dilution
Method: (§1) Bacterial Assay: Determination of Antibacterial Activity
(§2) Compounds of the invention were tested for antimicrobial activity by susceptibility testing in liquid or on solid media. MICs for compounds against each strain were determined by the broth microdilution or agar dilution method according to the guidelines of the Clinical Laboratories and Standards Institute, formerly the National Committee for Clinical Laboratory Standards (Clinical Laboratories and Standards Institute. Methods for Dilution Antimicrobial Susceptibility Tests for Bacteria That Grow Aerobically; Approved Standard—Seventh Edition. Document M7-A7. CLSI, Wayne, Pa., 2006; Clinical Laboratories and Standards Institute. The gram positive bacterial strains tested include S. aureus (Staphylococcus aureus (Isolate ID ATCC 29213)), E. faecalis (Enterococcus faecalis (Isolate ID ATCC 29212)) and S. pyogenes (Streptococcus pyogenes (Isolate ID ATCC 51339)). The gram negative bacterial strains tested include H. influenzae (Haemophilus influenzae (Isolate ID ATCC 49247))

[3] = tested on: Streptococcus pyogenes (Isolate ID ATCC 51339); assay: Antibacterial activity, MIC, S. pyogenes; format: cell-based; details: Streptococcus pyogenes, ATCC51339, Gram positive strain; broth microdilution or agar dilution
Method: as §1, §2

[4] = tested on: Haemophilus influenzae (Isolate ID ATCC 49247); assay: Antibacterial activity, MIC, H. influenzae; format: cell-based; details: Haemophilus influenzae, ATCC49247; Gram negative strain; broth microdilution or agar dilution
Method: as §1, §2

[5] = pH 7.4, aqueous buffer, Solubility (pH 7.4)
[6] = pH 7.4, aqueous buffer, Solubility Range
[7] = pH 9, aqueous buffer, Max Solubility
[8] = pH 9, aqueous buffer, Solubility Range (maximum solubility)
[9] = pH 7.4, aqueous buffer, Max Solubility
[10] = pH 7.4, aqueous buffer, Solubility Range (maximum solubility)

solubility at 24 h [1, 5]	solubility at 24 h [1, 6]	solubility at 24 h [1, 7]	solubility at 24 h [1, 8]	MIC [2]	MIC [3]	MIC [4]	solubility at 24 h [1, 9]	solubility at 24 h [1, 10]	Solubility (pH 7.4) ([1]; 24 h, pH 7.4)	solubility at 24 h ([1]; pH 4, aqueous buffer, Max Solubility)	solubility at 24 h ([1]; pH 4, aqueous buffer, Solubility Range (maximum solubility))	Structure (SMILES)
200 µg/mL (≈ 375 µM)	12.5 to 400 µg/mL (≈ 23.5 to 751 µM)			0.25 to 1 µg/mL (≈ 0.469 to 1.88 µM)	≤ 0.25 µg/mL	1 to 16 µg/mL (≈ 1.88 to 30 µM)	200 µg/mL (≈ 375 µM)	12.5 to 400 µg/mL (≈ 23.5 to 751 µM)				CCNC(=O)Nc1nc2cc(-c3cnc(N4CCC(CC)(C(=O)O)CC4)nc3)nc(-c3ccccn3)c2s1 [Compound 210]
				0.25 to 1 µg/mL (≈ 0.463 to 1.85 µM)	0.25 to 1 µg/mL (≈ 0.463 to 1.85 µM)	1 to 16 µg/mL (≈ 1.85 to 29.6 µM)	≥ 800 µg/mL	> 800 µg/mL	≧800 μg/mL			CCNC(=O)Nc1nc2cc(-c3cnc(N4CCC(CC)(C(=O)O)CC4)nc3)cc(/C(CC)=N\OC)c2s1 [Compound 211, (Z)-4-Ethyl-1-(5-(2-(3-ethylureido)-7-(1-(methoxyimino)propyl)benzo[d]thiazol-5-yl)pyrimidin-2-yl)piperidine-4-carboxylic acid]
400 µg/mL (≈ 752 µM)	400 to 800 µg/mL (≈ 752 to 1500 µM)	≥ 800 µg/mL	> 800 µg/mL	0.25 to 1 µg/mL (≈ 0.47 to 1.88 µM)	0.25 to 1 µg/mL (≈ 0.47 to 1.88 µM)	1 to 16 µg/mL (≈ 1.88 to 30.1 µM)						CCNC(=O)Nc1nc2cc(-c3cnc(N4CCC(C)(C(=O)O)CC4)nc3C)cc(-c3ccccn3)c2s1 [Compound 214]
400 µg/mL (≈ 770 µM)	400 to 800 µg/mL (≈ 770 to 1540 µM)	≥ 800 µg/mL	> 800 µg/mL	≤ 0.25 µg/mL	0.25 to 1 µg/mL (≈ 0.481 to 1.93 µM)	1 to 16 µg/mL (≈ 1.93 to 30.8 µM)						CCNC(=O)Nc1nc2cc(-c3cnc(N4CCC(C)(C(=O)O)CC4)nc3)cc(Br)c2s1 [Compound 215]
400 µg/mL (≈ 615 µM)	400 to 800 µg/mL (≈ 615 to 1230 µM)	≥ 800 µg/mL	> 800 µg/mL	≤ 0.25 µg/mL	0.25 to 1 µg/mL (≈ 0.384 to 1.54 µM)	1 to 16 µg/mL (≈ 1.54 to 24.6 µM)						CCNC(=O)Nc1nc2cc(-c3cnc(N4CCC(C)(C(=O)O)CC4)nc3)cc(-c3ccc(CN4CCC(F)(F)CC4)cn3)c2s1 [Compound 217]

Further lines, the molecule ahead of its results:

Structure (SMILES)	solubility at 24 h [1, 5]	solubility at 24 h [1, 6]	solubility at 24 h [1, 7]	solubility at 24 h [1, 8]	MIC [2]	MIC [3]	MIC [4]	solubility at 24 h [1, 9]	solubility at 24 h [1, 10]	Solubility (pH 7.4) ([1]; 24 h, pH 7.4)	solubility at 24 h ([1]; pH 4, aqueous buffer, Max Solubility)	solubility at 24 h ([1]; pH 4, aqueous buffer, Solubility Range (maximum solubility))
CCNC(=O)Nc1nc2cc(-c3csc(N4CCC(CC)(C(=O)O)CC4)n3)cc(-c3ccccn3)c2s1 [Compound 209, 4-Ethyl-1-[4-[2-(ethylcarbamoylamino)-7-(2-pyridyl)-1,3-benzothiazol-5-yl]thiazol-2-yl]piperidine-4-carboxylic acid]	200 µg/mL (≈ 373 µM)	12.5 to 400 µg/mL (≈ 23.3 to 745 µM)	400 µg/mL (≈ 745 µM)	400 to 800 µg/mL (≈ 745 to 1490 µM)	0.25 to 1 µg/mL (≈ 0.466 to 1.86 µM)	0.25 to 1 µg/mL (≈ 0.466 to 1.86 µM)	1 to 16 µg/mL (≈ 1.86 to 29.8 µM)					
CCNC(=O)Nc1nc2cc(-c3cnc(N4CCC(C)(C(=O)O)CC4)nc3)cc(-c3noc(C)n3)c2s1 [Compound 213, 1-[5-[2-(Ethylcarbamoylamino)-7-(5-methyl-1,2,4-oxadiazol-3-yl)-1,3-benzothiazol-5-yl]pyrimidin-2-yl]-4-methyl-piperidine-4-carboxylic acid]	400 µg/mL (≈ 765 µM)	400 to 800 µg/mL (≈ 765 to 1530 µM)	≥ 800 µg/mL	> 800 µg/mL	0.25 to 1 µg/mL (≈ 0.478 to 1.91 µM)	0.25 to 1 µg/mL (≈ 0.478 to 1.91 µM)	0.25 to 1 µg/mL (≈ 0.478 to 1.91 µM)					
CCNC(=O)Nc1nc2cc(-c3cnc(NC4COC(C)(C(=O)OCC)OC4)nc3)cc(-c3ccccn3)c2s1 (stereo not shown) [Compound 216]	25 µg/mL (≈ 44.4 µM)	12.5 to 400 µg/mL (≈ 22.2 to 710 µM)			≤ 0.25 µg/mL	1 to 16 µg/mL (≈ 1.77 to 28.4 µM)	1 to 16 µg/mL (≈ 1.77 to 28.4 µM)				50 µg/mL (≈ 88.7 µM)	12.5 to 400 µg/mL (≈ 22.2 to 710 µM)
CCNC(=O)Nc1nc2cc(-c3cnc(N(C)C4CCC(C)(C(=O)O)CC4)nc3)cc(-c3ccccn3)c2s1 (stereo not shown) [Compound 218]	200 µg/mL (≈ 367 µM)	12.5 to 400 µg/mL (≈ 22.9 to 733 µM)	≥ 800 µg/mL	> 800 µg/mL	≤ 0.25 µg/mL	≤ 0.25 µg/mL	1 to 16 µg/mL (≈ 1.83 to 29.3 µM)					
CCNC(=O)Nc1nc2cc(-c3cnc(N4CCC5(CC4)CC(CC)(C(=O)O)C5)nc3)cc(-c3ccccn3)c2s1 [Compound 219]	≥ 800 µg/mL	> 800 µg/mL			≤ 0.25 µg/mL	0.25 to 1 µg/mL (≈ 0.437 to 1.75 µM)	1 to 16 µg/mL (≈ 1.75 to 28 µM)	≥ 800 µg/mL	> 800 µg/mL			
CCNC(=O)Nc1nc2cc(-c3cnc(N4CCC(C)(C(=O)O)CC4)nc3OC)cc(-c3ccccn3)c2s1 [Compound 220]	50 µg/mL (≈ 91.3 µM)	12.5 to 400 µg/mL (≈ 22.8 to 730 µM)	400 µg/mL (≈ 730 µM)	400 to 800 µg/mL (≈ 730 to 1460 µM)	≤ 0.25 µg/mL	≤ 0.25 µg/mL	1 to 16 µg/mL (≈ 1.83 to 29.2 µM)					
